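How tested: cells in 96-well plates exposed to compound for 48 hours at five concentrations. GI50: concentration for 50% inhibition of growth.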 Calls of active or inactive are those of the source. Cut-off read from the data, not from the text of the source: active = GI50 up to about 1.1 µM and inactive = higher.
How the values were obtained:
Assay in all cases: growth of human tumour cells (NCI), 48 h
LXFL 529 = system: LXFL 529
HOP-18 = system: HOP-18
XF498 = system: XF498
SNB-78 = system: SNB-78
DMS-114 = system: DMS-114
RXF 631 = system: RXF 631
KM-20L2 = system: KM-20L2
DLD-1 = system: DLD-1
DMS-273 = system: DMS-273

SMILES | GI50 (LXFL 529) | GI50 (HOP-18) | GI50 (XF498) | GI50 (SNB-78) | GI50 (DMS-114) | GI50 (RXF 631) | GI50 (KM-20L2) | GI50 (DLD-1) | GI50 (DMS-273)
O=C1N2Cc3c4ccc5c3CN3C(=O)N6Cc7c(ccc(c7CN1C6(c1ccccc1)C23c1ccccc1)OCCOCCNCCOCCO4)OCCOCCNCCOCCO5 (stereo not drawn) | 13.7 µM (inactive) | 14.4 µM (inactive) | 60.1 µM (inactive) | > 100 µM (inactive) | > 100 µM (inactive) | 31.4 µM (inactive) | 52.4 µM (inactive) | > 100 µM (inactive) | 41.2 µM (inactive)
O=[N+]([O-])c1ccc2c(Nc3ccccc3-c3ccccc3Nc3c4ccccc4nc4cc([N+](=O)[O-])ccc34)c3ccccc3nc2c1 | 2.61 µM (inactive) | > 100 µM (inactive) | 1.59 µM (inactive) | > 100 µM (inactive) | 11.1 µM (inactive) | 5.9 µM (inactive) | 5.32 µM (inactive) | 2.63 µM (inactive) | 4.58 µM (inactive)
NC(CCc1nc(-c2ccc(Cl)cc2)cs1)C(=O)O (stereo not drawn) | > 100 µM (inactive) | > 100 µM (inactive) |  | > 100 µM (inactive) |  | > 100 µM (inactive) | > 100 µM (inactive) | > 100 µM (inactive) | > 100 µM (inactive)
CC1(C)C(=O)C(C)(C)C1=NNC(N)=S | > 100 µM (inactive) |  | > 100 µM (inactive) | > 100 µM (inactive) | > 100 µM (inactive) | > 100 µM (inactive) | > 100 µM (inactive) |  | > 100 µM (inactive)
Cc1cccc(C)c1NC(=O)CCCC(=O)CC(=O)/C=C/c1ccccc1 | > 100 µM (inactive) | > 100 µM (inactive) | > 100 µM (inactive) | > 100 µM (inactive) | > 100 µM (inactive) | > 100 µM (inactive) | > 100 µM (inactive) | > 100 µM (inactive) | > 100 µM (inactive)
Cc1ccc(S(=O)(=O)C(C#N)c2nc3ccccc3nc2-n2ccnc2)cc1 (stereo not drawn) | > 100 µM (inactive) | > 100 µM (inactive) | > 100 µM (inactive) | > 100 µM (inactive) | > 100 µM (inactive) |  |  | > 100 µM (inactive) | > 100 µM (inactive)
CCOC(=O)C(=O)Nc1c(C)cccc1CC | > 100 µM (inactive) | > 100 µM (inactive) | > 100 µM (inactive) | > 100 µM (inactive) | > 100 µM (inactive) | > 100 µM (inactive) | > 100 µM (inactive) | > 100 µM (inactive) | 
CNS(=O)(=O)NNS(=O)(=O)c1ccc(C)cc1 |  |  |  |  | > 100 µM (inactive) |  | > 100 µM (inactive) | > 100 µM (inactive) | 
O=c1c2ccccc2nc2n1-c1ccccc1SC2 | 34.4 µM (inactive) |  | 30.6 µM (inactive) | > 100 µM (inactive) | 34.7 µM (inactive) | 93.5 µM (inactive) | > 100 µM (inactive) | 55.5 µM (inactive) | 47.2 µM (inactive)
CCOC(=O)C1C(NC(N)=O)N(Cc2ccccc2)C(=O)N1Cc1ccccc1 (stereo not drawn) | > 100 µM (inactive) | > 100 µM (inactive) | > 100 µM (inactive) | 15.4 µM (inactive) | > 100 µM (inactive) | > 100 µM (inactive) | 41.3 µM (inactive) | > 100 µM (inactive) | > 100 µM (inactive)
Cc1cc(N(CCC#N)CCC#N)ccc1/N=N/c1ccc([N+](=O)[O-])cc1 |  |  |  | 34.1 µM (inactive) | 19 µM (inactive) |  | > 100 µM (inactive) |  | 17 µM (inactive)
CC1CCC2(C(=O)O)CCC3(C)C(=CCC4C5(C)CCC(O)C(C)(C)C5CCC43C)C2C1C (stereo not drawn) |  | 15.5 µM (inactive) | 5.86 µM (inactive) | 13.3 µM (inactive) | 9.42 µM (inactive) |  | 8.24 µM (inactive) | 6.53 µM (inactive) | 10.9 µM (inactive)
Cc1cc(C2CCCCC2)n(O)c(=O)c1 [CICLOPIROX OLAMINE] | 4.2 µM (inactive) | 39.8 µM (inactive) | 10.7 µM (inactive) |  | 4.74 µM (inactive) | 5.37 µM (inactive) | 12 µM (inactive) | 5.46 µM (inactive) | 
C=CC1(C)/C(=N\O)C(C)(CC)C(=O)N1O (stereo not drawn) | > 100 µM (inactive) | > 100 µM (inactive) | > 100 µM (inactive) | > 100 µM (inactive) | > 100 µM (inactive) | > 100 µM (inactive) |  | > 100 µM (inactive) | > 100 µM (inactive)
COCOCC/C=C/C=O | > 100 µM (inactive) | > 100 µM (inactive) | > 100 µM (inactive) | > 100 µM (inactive) | > 100 µM (inactive) |  | > 100 µM (inactive) | > 100 µM (inactive) | 
Cc1cc(OCC(O)CO)ccc1-c1ccccc1 (stereo not drawn) | > 100 µM (inactive) | > 100 µM (inactive) | 37.1 µM (inactive) | > 100 µM (inactive) | > 100 µM (inactive) |  | > 100 µM (inactive) |  | > 100 µM (inactive)
CN(C)CCn1cnc2sc3ccccc3c21 | > 100 µM (inactive) | 20.2 µM (inactive) | > 100 µM (inactive) | > 100 µM (inactive) | > 100 µM (inactive) | > 100 µM (inactive) | > 100 µM (inactive) |  | 
O=[N+]([O-])c1ccc2nc3ccscc-3c2c1 | 13.7 µM (inactive) | 14.1 µM (inactive) | 17.1 µM (inactive) | 23 µM (inactive) | 16.9 µM (inactive) | 14.8 µM (inactive) | 25.2 µM (inactive) | 9.64 µM (inactive) | 12.2 µM (inactive)
NC(=S)N/N=C(\CC1OC(=O)c2ccccc21)c1ccc(Cl)cc1 (stereo not drawn) | 28.8 µM (inactive) |  | 47 µM (inactive) | 36.9 µM (inactive) | 24.6 µM (inactive) | 24 µM (inactive) | 47 µM (inactive) | 41.3 µM (inactive) | 41 µM (inactive)
COc1cc(C(=O)CC2(O)C(=O)Nc3c(Cl)cc(Cl)cc32)ccc1O (stereo not drawn) | 27.9 µM (inactive) | 34.4 µM (inactive) | 48.3 µM (inactive) | 87.9 µM (inactive) | 37.8 µM (inactive) | > 100 µM (inactive) | 61.4 µM (inactive) | 41.9 µM (inactive) | 53 µM (inactive)
CC(Oc1ccc(Oc2cnc3ccc(Cl)cc3n2)cc1)C(=O)O (stereo not drawn) | > 100 µM (inactive) | > 100 µM (inactive) | > 100 µM (inactive) | > 100 µM (inactive) | > 100 µM (inactive) |  | > 100 µM (inactive) | > 100 µM (inactive) | > 100 µM (inactive)
CC(=O)CCn1[nH]c(=O)c(Cl)c(Cl)c1=O | > 100 µM (inactive) | > 100 µM (inactive) | > 100 µM (inactive) | > 100 µM (inactive) | > 100 µM (inactive) |  | > 100 µM (inactive) | > 100 µM (inactive) | > 100 µM (inactive)
NC1(C(=O)O)CCC(C(=O)O)CC1 (stereo not drawn) | > 100 µM (inactive) | > 100 µM (inactive) | > 100 µM (inactive) | > 100 µM (inactive) | > 100 µM (inactive) | > 100 µM (inactive) | > 100 µM (inactive) | > 100 µM (inactive) | > 100 µM (inactive)
CC(=O)[C@]1(O)Cc2c(O)c3c(c(O)c2[C@@H](OC2CC(N)C(O)C(C)O2)C1)C(=O)c1c(OCc2ccccc2)cccc1C3=O (stereo partly drawn) | 1.14 µM (inactive) | 1.71 µM (inactive) | 1.6 µM (inactive) | 4.38 µM (inactive) | 1.36 µM (inactive) |  | 1.15 µM (inactive) |  | 0.302 µM (active)
CN(C)CC(C)(C)C(=O)/C=C/c1ccccc1 | 12.3 µM (inactive) | 17.1 µM (inactive) | 11.6 µM (inactive) | 14.7 µM (inactive) | 14.2 µM (inactive) |  | 15.3 µM (inactive) | 12.6 µM (inactive) | 16.9 µM (inactive)
CCOC(=O)C1=C(Nc2ccc(NC3=C(C(=O)OCC)C(=O)CS3)cc2)SCC1=O | 22.1 µM (inactive) |  | 13.5 µM (inactive) | 33.6 µM (inactive) | 22.6 µM (inactive) |  | 35.2 µM (inactive) | 20.7 µM (inactive) | 20.7 µM (inactive)
COc1cc(C)c2c(c1C)OC(=O)c1c(C)c(Cl)c(O)c(C=O)c1O2 | 13.9 µM (inactive) |  | 12.3 µM (inactive) | 13.2 µM (inactive) |  | 15.5 µM (inactive) | 22.6 µM (inactive) | 11.6 µM (inactive) | 14.9 µM (inactive)
